Literature values, collected in paper PMC9851200, “Multiparameter phenotypic screening for endogenous TFEB and TFE3 translocation identifies novel chemical series modulating lysosome function” (Autophagy, 2022).

What was measured:
Parameters in all cases: method as in original PKIS2 published data
[1] = target: kinases (KINOMEscan panel) (Homo sapiens, UniProt P51451); details: kinase BLK; Published KINOMEscan; ref original PKIS2 published data; cited from earlier work
[2] = target: kinases (KINOMEscan panel) (Homo sapiens, UniProt O60674); details: JAK2(JH1domain-catalytic); Published KINOMEscan; ref original PKIS2 published data; cited from earlier work
[3] = target: T1, kinases (KINOMEscan panel) (Homo sapiens, UniProt P20794); details: Published KINOMEscan; ref original PKIS2 published data; cited from earlier work
T1 sequence (P20794 1-623): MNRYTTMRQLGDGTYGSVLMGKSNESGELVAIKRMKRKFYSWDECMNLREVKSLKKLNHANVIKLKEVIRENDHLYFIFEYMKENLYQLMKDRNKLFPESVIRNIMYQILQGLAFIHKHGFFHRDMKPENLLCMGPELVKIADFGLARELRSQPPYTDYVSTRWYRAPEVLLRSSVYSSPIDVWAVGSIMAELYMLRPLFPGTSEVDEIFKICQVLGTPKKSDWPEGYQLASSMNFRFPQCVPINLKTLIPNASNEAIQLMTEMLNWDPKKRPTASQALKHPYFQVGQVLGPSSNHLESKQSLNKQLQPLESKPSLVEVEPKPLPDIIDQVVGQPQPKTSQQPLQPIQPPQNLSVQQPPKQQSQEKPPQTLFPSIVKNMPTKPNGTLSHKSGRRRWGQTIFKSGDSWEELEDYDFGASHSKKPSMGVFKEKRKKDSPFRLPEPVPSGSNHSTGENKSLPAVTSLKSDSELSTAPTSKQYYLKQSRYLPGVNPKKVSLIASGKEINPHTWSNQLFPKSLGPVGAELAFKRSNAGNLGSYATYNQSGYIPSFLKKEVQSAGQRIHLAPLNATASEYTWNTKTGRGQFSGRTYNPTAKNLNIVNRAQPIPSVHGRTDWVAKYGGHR

[4] = target: T2, kinases (KINOMEscan panel) (Homo sapiens, UniProt O15146); details: MUSK; Published KINOMEscan; ref original PKIS2 published data; cited from earlier work
T2 sequence (O15146 24-869): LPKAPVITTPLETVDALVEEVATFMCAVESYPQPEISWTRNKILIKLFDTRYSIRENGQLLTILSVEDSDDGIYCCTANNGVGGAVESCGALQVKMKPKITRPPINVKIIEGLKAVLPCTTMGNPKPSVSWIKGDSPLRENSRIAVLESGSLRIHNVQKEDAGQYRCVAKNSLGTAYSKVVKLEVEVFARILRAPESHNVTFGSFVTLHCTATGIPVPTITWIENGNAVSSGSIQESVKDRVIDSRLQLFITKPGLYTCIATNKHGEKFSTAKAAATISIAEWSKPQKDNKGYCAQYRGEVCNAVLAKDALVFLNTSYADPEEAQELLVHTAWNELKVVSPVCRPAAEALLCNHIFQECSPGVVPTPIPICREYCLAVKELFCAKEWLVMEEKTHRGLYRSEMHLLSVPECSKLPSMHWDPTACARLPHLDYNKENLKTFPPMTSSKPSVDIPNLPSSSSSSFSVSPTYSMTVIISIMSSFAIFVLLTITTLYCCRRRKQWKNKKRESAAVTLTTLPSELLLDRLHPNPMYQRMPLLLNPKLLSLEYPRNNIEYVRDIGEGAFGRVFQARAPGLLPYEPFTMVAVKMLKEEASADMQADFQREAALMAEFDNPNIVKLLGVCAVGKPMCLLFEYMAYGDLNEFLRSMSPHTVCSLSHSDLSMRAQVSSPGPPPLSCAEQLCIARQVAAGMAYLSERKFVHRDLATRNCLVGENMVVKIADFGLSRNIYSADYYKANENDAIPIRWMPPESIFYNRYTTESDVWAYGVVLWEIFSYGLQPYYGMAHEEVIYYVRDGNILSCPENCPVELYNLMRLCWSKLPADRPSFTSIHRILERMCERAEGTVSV

Chain of kinases (KINOMEscan panel) (Homo sapiens, UniProt O60674) (O60674 whole entry): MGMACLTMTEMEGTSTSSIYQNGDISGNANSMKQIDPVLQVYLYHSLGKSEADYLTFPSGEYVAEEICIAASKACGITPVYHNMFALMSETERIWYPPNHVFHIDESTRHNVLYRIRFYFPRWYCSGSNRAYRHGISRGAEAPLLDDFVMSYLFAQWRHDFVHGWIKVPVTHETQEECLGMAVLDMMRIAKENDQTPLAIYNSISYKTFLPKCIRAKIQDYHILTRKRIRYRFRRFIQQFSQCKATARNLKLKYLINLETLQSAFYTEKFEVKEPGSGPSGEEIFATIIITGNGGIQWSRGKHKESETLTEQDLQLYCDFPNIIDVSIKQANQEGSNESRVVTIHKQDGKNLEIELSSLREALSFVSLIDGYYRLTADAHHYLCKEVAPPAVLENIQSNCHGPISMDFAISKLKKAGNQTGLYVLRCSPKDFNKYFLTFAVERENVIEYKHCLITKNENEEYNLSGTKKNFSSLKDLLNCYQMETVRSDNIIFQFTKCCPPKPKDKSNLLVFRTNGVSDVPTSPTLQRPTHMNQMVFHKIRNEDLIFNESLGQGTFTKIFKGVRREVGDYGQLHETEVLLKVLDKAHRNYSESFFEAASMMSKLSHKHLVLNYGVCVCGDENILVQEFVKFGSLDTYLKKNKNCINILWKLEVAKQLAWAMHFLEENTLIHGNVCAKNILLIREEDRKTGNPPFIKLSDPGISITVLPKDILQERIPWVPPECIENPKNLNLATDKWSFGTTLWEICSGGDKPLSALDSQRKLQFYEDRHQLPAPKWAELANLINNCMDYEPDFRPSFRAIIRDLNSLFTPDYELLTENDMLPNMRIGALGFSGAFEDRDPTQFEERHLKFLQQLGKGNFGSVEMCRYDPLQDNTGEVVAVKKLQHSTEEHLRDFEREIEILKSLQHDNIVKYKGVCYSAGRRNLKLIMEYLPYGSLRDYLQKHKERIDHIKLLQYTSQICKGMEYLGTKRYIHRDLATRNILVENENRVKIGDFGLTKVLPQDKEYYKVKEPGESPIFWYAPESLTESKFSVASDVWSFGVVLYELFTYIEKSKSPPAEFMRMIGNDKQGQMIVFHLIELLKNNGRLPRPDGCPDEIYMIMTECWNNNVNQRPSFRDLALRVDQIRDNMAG
Chain of kinases (KINOMEscan panel) (Homo sapiens, UniProt P51451) (P51451 whole entry): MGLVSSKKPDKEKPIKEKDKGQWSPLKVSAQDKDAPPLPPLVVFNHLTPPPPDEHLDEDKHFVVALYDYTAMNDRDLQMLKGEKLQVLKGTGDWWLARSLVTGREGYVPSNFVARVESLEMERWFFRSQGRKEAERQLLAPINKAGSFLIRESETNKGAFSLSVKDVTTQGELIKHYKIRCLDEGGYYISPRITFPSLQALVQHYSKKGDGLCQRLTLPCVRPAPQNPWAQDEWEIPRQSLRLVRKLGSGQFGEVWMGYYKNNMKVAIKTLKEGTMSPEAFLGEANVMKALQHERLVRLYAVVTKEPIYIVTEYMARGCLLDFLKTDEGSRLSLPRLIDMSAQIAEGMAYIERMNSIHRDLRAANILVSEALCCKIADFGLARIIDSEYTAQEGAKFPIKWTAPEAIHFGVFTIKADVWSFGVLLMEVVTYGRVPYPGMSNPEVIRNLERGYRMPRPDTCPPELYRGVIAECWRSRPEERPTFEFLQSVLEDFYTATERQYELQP

## Cc1cccc(-c2nc(Nc3ccncc3)c3ccccc3n2)n1 [NK215]
[1]
  KINOMEscan BLK: 1
[2]
  KINOMEscan JAK2(JH1domain-catalytic): 0
[3]
  KINOMEscan MAK: 0
[4]
  KINOMEscan MUSK: 17
